The target in one data set is T1, OGA (Homo sapiens, UniProt O60502).
T1 construct: HEK293 cells inducible for P301L mutant human Tau (isoform 2N4R) were established at Janssen; endogenous in cells; host or cells: HEK293 cells inducible for P301L mutant human Tau (2N4R)
T1 sequence (O60502 1-916): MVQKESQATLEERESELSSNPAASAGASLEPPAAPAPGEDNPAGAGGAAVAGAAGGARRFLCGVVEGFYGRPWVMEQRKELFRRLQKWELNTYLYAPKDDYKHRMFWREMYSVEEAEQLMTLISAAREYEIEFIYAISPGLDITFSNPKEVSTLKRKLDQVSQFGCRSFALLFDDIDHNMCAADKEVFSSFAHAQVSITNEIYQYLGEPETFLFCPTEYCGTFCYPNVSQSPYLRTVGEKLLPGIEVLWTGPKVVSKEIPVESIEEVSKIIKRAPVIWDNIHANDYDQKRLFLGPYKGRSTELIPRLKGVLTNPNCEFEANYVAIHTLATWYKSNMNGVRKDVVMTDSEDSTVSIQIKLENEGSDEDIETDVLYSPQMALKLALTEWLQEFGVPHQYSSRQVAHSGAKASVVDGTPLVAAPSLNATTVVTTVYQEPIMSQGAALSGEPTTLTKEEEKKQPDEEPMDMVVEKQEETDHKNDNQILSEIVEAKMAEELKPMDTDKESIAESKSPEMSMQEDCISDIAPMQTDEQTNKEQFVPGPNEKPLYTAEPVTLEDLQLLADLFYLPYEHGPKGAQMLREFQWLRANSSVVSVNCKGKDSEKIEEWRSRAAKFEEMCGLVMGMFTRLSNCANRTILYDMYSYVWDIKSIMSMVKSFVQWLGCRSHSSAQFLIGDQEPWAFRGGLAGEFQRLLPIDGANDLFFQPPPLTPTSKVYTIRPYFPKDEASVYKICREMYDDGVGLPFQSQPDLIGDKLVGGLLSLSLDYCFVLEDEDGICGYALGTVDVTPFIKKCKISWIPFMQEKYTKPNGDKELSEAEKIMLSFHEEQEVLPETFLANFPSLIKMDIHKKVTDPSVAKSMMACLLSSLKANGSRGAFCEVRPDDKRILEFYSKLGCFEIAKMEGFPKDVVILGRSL
Nature of the data set: OGA cellular assay (ICC detection of O-GlcNAcylated proteins in HEK293 cells inducible for P301L mutant human Tau). Type of data set: cell-based. The note with it: 6 hours incubation; for Emax: HEK293, HEK293 cells inducible for P301L mutant human Tau, maximum = Thiamet G 200 uM; for EC50: HEK293 cells inducible for P301L mutant human Tau, read-out: Cellular hOGA, pEC50 (converted). The essentials:
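HEK293 cells with inducible P301L 2N4R Tau, seeded in low-glucose medium, were exposed to compounds for 6 hours (0.2% DMSO), then PFA-fixed and stained with CTD110.6. Imaging intensity at 488 nm measured O-GlcNAcylation, with Hoechst nuclei counts for toxicity. IC50s came from non-linear regression, with Thiamet G at 200 uM as maximum inhibition.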

For data set [1], the target named is T2, recombinant human Meningioma Expressed Antigen 5 (MGEA5), also referred to as O-GlcNAcase (OGA) (Homo sapiens, UniProt O60502).
T2 construct: Full length OGA enzyme was purchased at OriGene (cat #TP322411); purchased OriGene TP322411
T2 sequence (O60502 1-916): T1 sequence (O60502 1-916)
Description: OGA biochemical assay (inhibition of FM-GlcNAc hydrolysis, fluorescence). The conditions noted are these: for Emax: read-out: Enzymatic Emax (%); for IC50: read-out: Enzymatic hOGA, pIC50 (converted). The method, boiled down:
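Full-length OGA at 2 nM was pre-incubated 60 min at room temperature with compound, then FM-GlcNAc at 100 uM final was added in citrate/phosphate buffer pH 7.2 with 0.005% Tween-20. After 6 h at room temperature, carbonate pH 11.0 stopped the reaction. Fluorescence read at 485/538 nm; IC50 and Hill coefficient from curve fit against no-inhibitor and saturating-standard controls.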

By melting point is commonly meant the temperature of the solid-liquid transition. What is called Emax is the maximal effect, on the per cent scale that the assay sets. In turn, `Cc1ncc(OC2CCN(C(C)c3ccc4c(n3)OCCC4)CC2)cn1.Cl` (stereo not drawn) [Compound 139] gave a melting point of 208.1 °C. For the same molecule, on OGA, the Emax was found to be 31% and the EC50 is > 1000 nM. In addition, in data set [1], the Emax worked out at 95% and the IC50 was 200 nM.

Turning to `Cc1ncc(COC2CCN(C(C)c3nc4c(cc3F)OCCO4)CC2)cn1` (single isomer, unassigned) [Compound 136], the melting point was determined as 64.4 °C. Besides, at OGA, the Emax amounted to 81% and the EC50 is 50.1 nM. Besides, in data set [1], the Emax was determined as 95% and the IC50 is 12.6 nM.

As to `Cc1ncc(NC2CCN(C(C)c3nc4c(cc3F)OCCO4)CC2)cn1` (stereo not drawn) [Compound 127], the melting point was determined as 209.9 °C. In addition, at OGA, the Emax was determined as 81% and the EC50 is 135 nM. Besides, in data set [1], the maximal effect (Emax) came out at 98% and the IC50 was 20 nM.

`Cc1ncc(OC2CCN(C(C)c3nc4c(cc3F)OCCO4)CC2)cn1.Cl` (stereo not drawn) [Compound 91] had a melting point of 134.6 °C. In addition, on OGA, the Emax is 86% and the EC50 was 200 nM. In data set [1], the Emax was found to be 105% and the IC50 is 15.8 nM.

In turn, `Cc1ccc(OC2CCN(C(C)c3ccc4c(c3)OCO4)CC2)cn1.Cl` (stereo not drawn) [Compound 31] returned a melting point of 278.4 °C. For the same molecule, on OGA, the maximum response (Emax) was 21% and the EC50 is > 1000 nM. For the same molecule, in data set [1], the Emax turned out to be 96% and the IC50 was 794 nM.

Molecule `Cc1ccc(OC2CCN(C(C)c3nc4c(cc3F)OCCO4)CC2)nc1C` (stereo not drawn) [Compound 156] came in with a melting point of 140.6 °C. For the same molecule, on OGA, the Emax worked out at 67% and the EC50 was 200 nM. Besides, in data set [1], the Emax amounted to 102% and the IC50 was 20 nM.

The molecule `Cc1ncc(COC2CCN([C@@H](C)c3nc4c(cc3F)OCCO4)CC2)cn1` (single isomer, unassigned) [Compound 137] registered a melting point of 70.1 °C. On OGA, the maximal response (Emax) is 25% and the EC50 was > 1000 nM. In data set [1], the maximum response (Emax) was found to be 96% and the IC50 was 398 nM.

Molecule `Cc1cc(OC2CCN([C@H](C)c3nc4c(cc3F)CCO4)CC2)cc(C)n1` (single isomer, unassigned) [Compound 143] displayed a melting point of 105.3 °C. Also, on OGA, the Emax amounted to 100% and the EC50 is 17.4 nM. In data set [1], the Emax was 99% and the IC50 is 5.01 nM.

In turn, `Cc1cc(OC2CCN(C(C)c3nc4c(cc3F)OCCO4)CC2)ncc1C#N` (stereo not drawn) [Compound 113] displayed a melting point of 161.44 °C. Also, at OGA, the maximal response (Emax) amounted to 83% and the EC50 was 126 nM. In addition, in data set [1], the Emax worked out at 96% and the IC50 is 15.8 nM.

For `Cc1ncc(OC2CCN(C(C)c3ccc4c(c3)OCO4)CC2)cn1.Cl` (stereo not drawn) [Compound 30], the melting point worked out at 213.2 °C. At OGA, the Emax was 15% and the EC50 is > 1000 nM. For the same molecule, in data set [1], the maximal effect (Emax) came out at 100% and the IC50 was 794 nM.

`Cc1cnc(OC2CCN(C(C)c3ccc4c(n3)OCCO4)CC2)cn1` (stereo not drawn) [Compound 141]: the melting point was 119.6 °C. Further, on OGA, the maximal effect (Emax) was 51% and the EC50 is 794 nM. In addition, in data set [1], the maximal effect (Emax) worked out at 97% and the IC50 was 200 nM.

Molecule `CC(c1ccc2c(n1)OCCO2)N1CCC(Oc2ccc(C#N)nc2)CC1` (stereo not drawn) [Compound 150] returned a melting point of 133 °C. Also, on OGA, the maximal response (Emax) was 57% and the EC50 was 398 nM. For the same molecule, in data set [1], the Emax was determined as 95% and the IC50 is 79.4 nM.

On to `CCOc1cc(OC2CCN(C(C)c3ccc4c(n3)OCCO4)CC2)cc(C)n1.Cl` (stereo not drawn) [Compound 142], for which the melting point came to 119.6 °C. For the same molecule, on OGA, the maximum response (Emax) was determined as 73% and the EC50 is 158 nM. Also, in data set [1], the maximal effect (Emax) came to 104% and the IC50 is 25.1 nM.

In turn, `Cc1ccc(NC2CCN(C(C)c3nc4c(cc3F)OCCO4)CC2)cn1` (stereo not drawn) [Compound 126] came in with a melting point of 138 °C. Further, at OGA, the maximal response (Emax) amounted to 73% and the EC50 was 63.1 nM. Moreover, in data set [1], the maximal effect (Emax) was 99% and the IC50 was 25.1 nM.

In turn, `Cc1ccc(OC2CCN(C(C)c3ccc4c(n3)OCCO4)CC2)nn1.Cl` (stereo not drawn) [Compound 151] displayed a melting point of 168 °C. At OGA, the Emax is 30% and the EC50 was > 1000 nM. For the same molecule, in data set [1], the Emax came to 98% and the IC50 was 200 nM.

The values above are taken from patent publication US20210122763A1, “OGA INHIBITOR COMPOUNDS” (Janssen Pharmaceutica NV, priority 2018, published 2021).
